# Laboratory results from patent publication US8450305B2, “Macrocyclic compounds useful as inhibitors of kinases and HSP90” (Universite de Strasbourg, priority 2006, dated 2013).
# How the values were obtained:
# Type in all cases: biochemical
# SAK = target: T1, SAK (Homo sapiens, UniProt O00444); experiment: Radiometric protein kinase assay, SAK; details: 1 μM ATP; read-out: Inhibitory activity (IC50:μM) SAK
# T1 construct: host or cells: Sf9 insect cells (baculovirus)
# T1 sequence (O00444 1-970): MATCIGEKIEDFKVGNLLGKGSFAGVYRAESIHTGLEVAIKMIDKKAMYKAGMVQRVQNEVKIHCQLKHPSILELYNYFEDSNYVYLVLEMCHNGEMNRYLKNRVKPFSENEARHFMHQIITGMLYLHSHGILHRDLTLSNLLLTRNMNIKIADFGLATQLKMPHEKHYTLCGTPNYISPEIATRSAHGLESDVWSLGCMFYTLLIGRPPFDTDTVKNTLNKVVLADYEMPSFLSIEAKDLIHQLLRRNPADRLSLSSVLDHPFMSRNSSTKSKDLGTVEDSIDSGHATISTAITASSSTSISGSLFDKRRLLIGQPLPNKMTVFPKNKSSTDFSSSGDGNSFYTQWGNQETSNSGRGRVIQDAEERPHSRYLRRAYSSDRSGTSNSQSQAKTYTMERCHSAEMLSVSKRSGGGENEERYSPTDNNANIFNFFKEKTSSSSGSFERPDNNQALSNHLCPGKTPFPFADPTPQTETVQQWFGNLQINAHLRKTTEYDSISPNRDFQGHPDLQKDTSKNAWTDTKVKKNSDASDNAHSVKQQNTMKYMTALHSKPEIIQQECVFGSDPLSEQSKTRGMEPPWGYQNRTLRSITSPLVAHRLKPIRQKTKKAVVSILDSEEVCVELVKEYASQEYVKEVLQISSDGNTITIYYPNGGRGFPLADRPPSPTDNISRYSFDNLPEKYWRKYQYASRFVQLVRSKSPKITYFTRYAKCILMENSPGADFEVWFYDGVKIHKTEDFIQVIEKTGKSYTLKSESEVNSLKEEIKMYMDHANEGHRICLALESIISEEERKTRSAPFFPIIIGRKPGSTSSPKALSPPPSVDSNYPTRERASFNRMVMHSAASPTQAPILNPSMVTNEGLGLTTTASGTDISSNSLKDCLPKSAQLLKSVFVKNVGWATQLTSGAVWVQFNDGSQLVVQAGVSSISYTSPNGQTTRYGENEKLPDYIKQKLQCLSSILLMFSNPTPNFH
# Excerpt: (§1) All protein kinases were expressed in Sf9 insect cells as human recombinant GST-fusion proteins or His-tagged proteins by means of the baculovirus expression system. Kinases were purified by affinity chromatography using either GSH-agarose (Sigma) or Ni-NTH-agarose (Qiagen). The purity of each kinase was checked by SDS-PAGE/silver staining and the identity of each kinase was verified by western blot analysis with kinase specific antibodies or by mass spectroscopy.
# (§2) A radiometric protein kinase assay (^33PanQinase® Activity Assay) was used for measuring the kinase activity of the 24 protein kinases. All kinase assays were performed in 96-well FlashPlates™ from Perkin Elmer (Boston, Mass., USA) in a 50 μl reaction volume. The reaction cocktail was pipetted in 4 steps in the following order: • 20 μl of assay buffer • 5 μl of ATP solution (in H2O) • 5 μl of test compound (in 10% DMSO) • 10 μl of substrate/10 […] of enzyme solution (premixed)
# (§3) The assay for all enzymes contained 60 mM HEPES-NaOH, pH 7.5, 3 mM MgCl2, 3 mM MnCl2, 3 μM Na-orthovanadate, 1.2 mM DTT, 50 μg/ml PEG20000, 1 μM [γ-^33P]-ATP (approx. 5×10^05 cpm per well).
# (§4) For the 24 kinase assays, the following amounts of enzyme and substrate were used per well:
# (§5) The reaction cocktails were incubated at 30° C. for 80 minutes. The reaction was stopped with 50 μl of 2% (v/v) H3PO4, plates were aspirated and washed two times with 200 μl of 0.9% (w/v) NaCl or 200 μl H2O. Incorporation of ^33Pi was determined with a microplate scintillation counter (Microbeta Trilux, Wallac).
# (§6) The median value of the counts in column 1 (n=8) of each assay plate was defined as “low control”. This value reflects unspecific binding of radioactivity to the plate in the absence of a protein kinase but in the presence of the substrate. The median value of the counts in column 7 of each assay plate (n=8) was taken as the “high control”, i.e. full activity in the absence of any inhibitor. The difference between high and low control was taken as 100% activity.
# (§7) As part of the data evaluation the low control value from a particular plate was subtracted from the high control value as well as from all 80 “compound values” of the corresponding plate. The residual activity (in %) for each well of a particular plate was calculated by using the following formula: Res. Activity (%)=100×[(cpm of compound−low control)/(high control−low control)]
# (§8) The residual activities for each concentration and the compound IC50 values were calculated using Quattro Workflow V2.1.0.0 (Quattro Research GmbH, Munich, Germany; www.quattro-research.com). The model used was “Sigmoidal response (variable slope)” with parameters “top” fixed at 100% and “bottom” at 0%.
# FAK = target: T2, FAK (Homo sapiens, UniProt Q05397); experiment: Radiometric protein kinase assay, FAK; details: 1 μM ATP; read-out: Inhibitory activity (IC50:μM) FAK
# T2 construct: host or cells: Sf9 insect cells (baculovirus)
# Excerpt: as §1, §2, §3, §4, §5, §6, §7, §8
# IGF1-R = target: T3, IGF1-R (Homo sapiens, UniProt P08069); experiment: Radiometric protein kinase assay, IGF1-R; details: 1 μM ATP; read-out: Inhibitory activity (IC50:μM) IGF1-R
# T3 construct: host or cells: Sf9 insect cells (baculovirus)
# Excerpt: as §1, §2, §3, §4, §5, §6, §7, §8
# VEGF-R3 = target: T4, VEGF-R3 (Homo sapiens, UniProt P35916); experiment: Radiometric protein kinase assay, VEGF-R3; details: 1 μM ATP; read-out: Inhibitory activity (IC50:μM) VEGF-R3
# T4 construct: host or cells: Sf9 insect cells (baculovirus)
# T4 sequence (P35916 25-1363): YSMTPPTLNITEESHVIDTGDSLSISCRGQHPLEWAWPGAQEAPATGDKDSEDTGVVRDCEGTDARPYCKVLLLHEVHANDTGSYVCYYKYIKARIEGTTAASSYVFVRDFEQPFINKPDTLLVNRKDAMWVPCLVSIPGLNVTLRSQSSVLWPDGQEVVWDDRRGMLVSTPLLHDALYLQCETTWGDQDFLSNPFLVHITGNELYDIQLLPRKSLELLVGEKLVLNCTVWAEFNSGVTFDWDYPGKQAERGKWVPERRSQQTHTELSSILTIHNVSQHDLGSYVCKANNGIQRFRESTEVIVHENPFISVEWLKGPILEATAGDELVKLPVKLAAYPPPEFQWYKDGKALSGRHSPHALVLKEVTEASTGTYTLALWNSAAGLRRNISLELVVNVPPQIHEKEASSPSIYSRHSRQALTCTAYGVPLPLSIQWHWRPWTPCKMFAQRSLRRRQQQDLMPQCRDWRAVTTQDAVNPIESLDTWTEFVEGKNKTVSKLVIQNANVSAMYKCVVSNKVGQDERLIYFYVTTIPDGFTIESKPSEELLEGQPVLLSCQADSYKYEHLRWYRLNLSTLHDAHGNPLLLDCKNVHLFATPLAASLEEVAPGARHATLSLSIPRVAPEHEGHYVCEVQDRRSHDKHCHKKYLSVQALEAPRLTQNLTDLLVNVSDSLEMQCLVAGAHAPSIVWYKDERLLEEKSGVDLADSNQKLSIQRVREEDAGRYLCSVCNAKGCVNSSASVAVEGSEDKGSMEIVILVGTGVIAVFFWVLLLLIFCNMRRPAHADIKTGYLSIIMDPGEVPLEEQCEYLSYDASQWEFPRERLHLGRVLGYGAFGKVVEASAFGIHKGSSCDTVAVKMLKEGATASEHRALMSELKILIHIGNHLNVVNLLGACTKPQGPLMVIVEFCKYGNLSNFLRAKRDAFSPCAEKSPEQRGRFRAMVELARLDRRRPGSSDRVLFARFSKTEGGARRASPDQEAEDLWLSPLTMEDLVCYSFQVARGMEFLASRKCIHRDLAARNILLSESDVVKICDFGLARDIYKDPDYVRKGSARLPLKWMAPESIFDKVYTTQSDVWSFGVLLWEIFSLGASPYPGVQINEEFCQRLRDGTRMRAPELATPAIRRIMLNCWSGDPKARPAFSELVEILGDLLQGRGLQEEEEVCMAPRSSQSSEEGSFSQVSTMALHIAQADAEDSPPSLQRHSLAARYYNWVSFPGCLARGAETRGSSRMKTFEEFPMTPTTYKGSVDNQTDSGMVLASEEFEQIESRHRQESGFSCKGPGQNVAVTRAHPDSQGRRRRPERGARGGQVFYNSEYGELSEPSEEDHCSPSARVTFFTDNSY
# Excerpt: as §1, §2, §3, §4, §5, §6, §7, §8
# EGF-R = target: T5, EGF-R (Homo sapiens, UniProt P00533); experiment: Radiometric protein kinase assay, EGF-R; details: 1 μM ATP; read-out: Inhibitory activity (IC50:μM) EGF-R
# T5 construct: host or cells: Sf9 insect cells (baculovirus)
# T5 sequence (P00533 25-1210): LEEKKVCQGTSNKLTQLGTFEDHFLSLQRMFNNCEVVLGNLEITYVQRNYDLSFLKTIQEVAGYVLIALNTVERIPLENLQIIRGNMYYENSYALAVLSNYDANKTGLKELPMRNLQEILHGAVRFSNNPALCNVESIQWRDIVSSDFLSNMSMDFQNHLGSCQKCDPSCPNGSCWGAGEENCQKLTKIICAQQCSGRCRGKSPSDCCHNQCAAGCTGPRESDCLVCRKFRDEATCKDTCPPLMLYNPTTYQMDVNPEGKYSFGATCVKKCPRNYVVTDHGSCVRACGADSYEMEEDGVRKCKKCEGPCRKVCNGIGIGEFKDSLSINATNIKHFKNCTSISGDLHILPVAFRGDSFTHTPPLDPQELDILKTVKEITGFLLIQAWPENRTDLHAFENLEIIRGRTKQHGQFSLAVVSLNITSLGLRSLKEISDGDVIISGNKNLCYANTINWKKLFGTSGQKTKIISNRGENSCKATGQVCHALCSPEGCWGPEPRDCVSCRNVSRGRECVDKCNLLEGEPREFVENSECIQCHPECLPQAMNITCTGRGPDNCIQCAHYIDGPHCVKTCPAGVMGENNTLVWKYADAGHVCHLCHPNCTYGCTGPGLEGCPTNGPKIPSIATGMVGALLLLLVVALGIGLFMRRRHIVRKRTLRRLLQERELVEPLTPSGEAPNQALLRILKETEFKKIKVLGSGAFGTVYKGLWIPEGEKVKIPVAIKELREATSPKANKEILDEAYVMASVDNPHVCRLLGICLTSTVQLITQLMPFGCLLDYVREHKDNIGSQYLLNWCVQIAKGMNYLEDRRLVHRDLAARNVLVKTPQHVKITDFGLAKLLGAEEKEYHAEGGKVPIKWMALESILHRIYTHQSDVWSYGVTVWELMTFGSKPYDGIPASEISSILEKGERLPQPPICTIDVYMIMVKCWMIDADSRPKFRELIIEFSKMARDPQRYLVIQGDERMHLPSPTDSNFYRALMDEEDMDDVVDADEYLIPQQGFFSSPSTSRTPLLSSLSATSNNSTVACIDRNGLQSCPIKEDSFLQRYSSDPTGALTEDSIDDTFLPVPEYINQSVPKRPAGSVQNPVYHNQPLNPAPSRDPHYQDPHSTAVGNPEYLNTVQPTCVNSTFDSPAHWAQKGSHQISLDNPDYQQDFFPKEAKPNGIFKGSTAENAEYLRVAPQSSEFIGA
# Excerpt: as §1, §2, §3, §4, §5, §6, §7, §8
# TIE2 = target: T6, TIE2 (Homo sapiens, UniProt Q02763); experiment: Radiometric protein kinase assay, TIE2; details: 1 μM ATP; read-out: Inhibitory activity (IC50:μM) TIE2
# T6 construct: host or cells: Sf9 insect cells (baculovirus)
# T6 sequence (Q02763 23-1124): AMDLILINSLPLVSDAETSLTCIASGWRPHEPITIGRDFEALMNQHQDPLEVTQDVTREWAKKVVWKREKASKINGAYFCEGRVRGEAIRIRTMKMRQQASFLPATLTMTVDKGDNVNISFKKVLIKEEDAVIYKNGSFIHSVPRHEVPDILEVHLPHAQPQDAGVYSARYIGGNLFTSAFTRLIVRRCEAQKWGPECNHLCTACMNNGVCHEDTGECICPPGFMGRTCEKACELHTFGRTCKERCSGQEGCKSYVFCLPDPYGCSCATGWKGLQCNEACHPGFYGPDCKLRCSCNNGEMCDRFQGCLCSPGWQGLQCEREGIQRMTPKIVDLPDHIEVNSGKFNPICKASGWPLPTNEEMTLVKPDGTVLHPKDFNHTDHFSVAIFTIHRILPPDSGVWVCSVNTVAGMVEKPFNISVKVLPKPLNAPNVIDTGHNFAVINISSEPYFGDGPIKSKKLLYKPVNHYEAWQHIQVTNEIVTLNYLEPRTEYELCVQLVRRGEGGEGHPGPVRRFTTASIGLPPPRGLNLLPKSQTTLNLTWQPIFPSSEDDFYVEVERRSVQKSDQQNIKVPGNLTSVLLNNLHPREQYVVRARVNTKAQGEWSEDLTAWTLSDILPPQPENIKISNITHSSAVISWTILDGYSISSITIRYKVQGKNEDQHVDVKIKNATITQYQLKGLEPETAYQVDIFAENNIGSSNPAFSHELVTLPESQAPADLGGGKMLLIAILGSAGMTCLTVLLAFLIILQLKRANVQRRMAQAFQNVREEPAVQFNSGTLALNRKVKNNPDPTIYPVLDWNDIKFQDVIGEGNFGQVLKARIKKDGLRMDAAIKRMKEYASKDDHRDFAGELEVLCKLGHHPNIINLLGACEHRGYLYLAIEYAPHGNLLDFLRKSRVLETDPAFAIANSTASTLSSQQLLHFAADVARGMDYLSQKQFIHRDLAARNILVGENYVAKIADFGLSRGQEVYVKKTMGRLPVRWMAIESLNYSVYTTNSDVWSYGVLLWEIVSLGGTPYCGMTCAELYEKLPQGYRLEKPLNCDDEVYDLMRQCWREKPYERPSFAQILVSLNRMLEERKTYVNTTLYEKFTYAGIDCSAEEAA
# Excerpt: as §1
# as §2, with “(premixed) […]” for “(premixed)”
# (§9) The reaction cocktails were incubated at 30° C. for 80 minutes. […] Incorporation of ^33Pi was determined with a microplate scintillation counter (Microbeta Trilux, Wallac).
# (§10) The median value of the counts in column 1 (n=8) of each assay plate was defined as “low control”. This value reflects unspecific binding of radioactivity to the plate in the absence of a protein kinase but in the presence of the substrate. […]
# as §7
# (§11) The residual activities for each concentration and the compound IC50 values were calculated using Quattro Workflow V2.1.0.0 (Quattro Research GmbH, Munich, Germany; www.quattro-research.com). […]
# MET = target: T7, MET (Homo sapiens, UniProt P08581); experiment: Radiometric protein kinase assay, MET; details: 1 μM ATP; read-out: Inhibitory activity (IC50:μM) MET
# T7 construct: host or cells: Sf9 insect cells (baculovirus)
# T7 sequence (P08581 25-1390): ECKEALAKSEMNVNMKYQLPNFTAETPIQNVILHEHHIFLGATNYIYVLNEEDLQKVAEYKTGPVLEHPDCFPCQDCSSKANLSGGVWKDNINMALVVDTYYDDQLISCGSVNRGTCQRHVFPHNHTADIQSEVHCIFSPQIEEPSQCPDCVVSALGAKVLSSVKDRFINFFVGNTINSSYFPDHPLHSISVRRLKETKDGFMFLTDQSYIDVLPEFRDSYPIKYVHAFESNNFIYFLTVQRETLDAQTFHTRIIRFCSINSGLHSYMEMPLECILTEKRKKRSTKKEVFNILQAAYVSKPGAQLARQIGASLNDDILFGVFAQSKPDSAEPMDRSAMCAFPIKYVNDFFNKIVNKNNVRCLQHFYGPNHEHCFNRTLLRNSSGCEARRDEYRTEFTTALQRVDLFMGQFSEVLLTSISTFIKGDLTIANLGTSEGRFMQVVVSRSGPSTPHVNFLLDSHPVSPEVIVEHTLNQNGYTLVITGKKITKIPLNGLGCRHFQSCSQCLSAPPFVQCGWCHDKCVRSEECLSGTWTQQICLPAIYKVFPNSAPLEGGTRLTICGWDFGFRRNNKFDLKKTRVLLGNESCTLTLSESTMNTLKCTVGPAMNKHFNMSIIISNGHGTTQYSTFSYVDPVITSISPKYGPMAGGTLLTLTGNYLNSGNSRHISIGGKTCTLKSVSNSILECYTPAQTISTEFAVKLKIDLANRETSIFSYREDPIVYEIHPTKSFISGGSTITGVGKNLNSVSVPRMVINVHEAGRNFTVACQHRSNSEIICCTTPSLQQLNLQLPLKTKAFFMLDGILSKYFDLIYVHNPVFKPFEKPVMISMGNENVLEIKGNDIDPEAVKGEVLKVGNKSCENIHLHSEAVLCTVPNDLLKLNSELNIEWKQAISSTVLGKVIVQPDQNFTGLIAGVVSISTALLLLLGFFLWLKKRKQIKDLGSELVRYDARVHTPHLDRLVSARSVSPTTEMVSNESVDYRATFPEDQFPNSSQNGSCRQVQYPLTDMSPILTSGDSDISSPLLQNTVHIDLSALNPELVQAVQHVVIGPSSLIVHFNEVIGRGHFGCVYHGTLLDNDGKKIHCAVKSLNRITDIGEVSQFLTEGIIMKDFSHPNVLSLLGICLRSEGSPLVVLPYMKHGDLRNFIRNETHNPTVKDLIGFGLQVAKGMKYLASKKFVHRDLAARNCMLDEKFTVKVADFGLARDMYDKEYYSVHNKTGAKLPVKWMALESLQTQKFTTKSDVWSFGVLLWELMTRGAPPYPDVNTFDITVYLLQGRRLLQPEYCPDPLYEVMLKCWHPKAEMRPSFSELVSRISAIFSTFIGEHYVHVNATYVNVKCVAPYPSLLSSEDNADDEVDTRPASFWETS
# Excerpt: as §1
# as §2, with “(premixed) […]” for “(premixed)”
# as §9, §10, §7, §11
SMILES,IC50 (SAK) [µM],IC50 (FAK) [µM],IC50 (IGF1-R) [µM],IC50 (VEGF-R3) [µM],IC50 (EGF-R) [µM],IC50 (TIE2) [µM],IC50 (MET) [µM]
CC(C)[C@@H]1CC2OC2CC/C=C/C(=O)Cc2c(Cl)c(O)cc(O)c2C(=O)O1 (stereo partly drawn) [A-4],19,37,13,31,22,–,–
COC1CC/C=C/C[C@H](c2ccccc2)OC(=O)c2c(O)cc(O)c(Cl)c2CC(=O)C1 (stereo partly drawn) [A-2],17,14,16,40,10,16,32
O=C1Cc2c(Cl)c(O)cc(O)c2C(=O)O[C@H](c2ccccc2)C/C=C/CCC(Cl)C1 (stereo partly drawn) [A-3],25,9,19,19,14,15,29
O=C1/C=C/CCC2OC2C[C@@H](Cc2ccccc2)OC(=O)c2c(O)cc(O)cc2C1 (stereo partly drawn) [A-6],17,34,21,34,32,25,36
O=C1/C=C/CCC2OC2C[C@H](c2ccccc2)OC(=O)c2c(O)cc(O)c(Cl)c2C1 (stereo partly drawn) [A-5],20,38,–,31,16,–,–
